17 compounds from patent US11427550B2, “5-fluorouracil compounds” (NUCORION PHARMACEUTICALS, INC., priority 2018, dated 2022) can be followed below.

Like-named read-outs stand apart in the source and are kept apart here. Where only a bound is given, the exact number is not on record here.

The series can be described thus: Tissue distribution following oral administration of reference compounds and the disclosed compounds. The conditions noted are these: rat. The class given is in vivo, rats. The method, then: The liver specificity of the disclosed compounds is compared relative to a corresponding active compound in liver and other organs that could be targets of toxicity.
Reference compounds and the cyclic deoxyribonucleotide, acetal, and hemiaminal compounds are administered at 5-50 mg/kg to fasted rats by oral gavage. Plasma concentrations of the metabolites, and parent compounds in circulation and in the hepatic portal vein are determined by HPLC-UV, and the liver, small intestine, and other organ concentrations are measured by LC-MS using the standard chromatography method.

Where [1] appears, read: prodrug level in the blood 1 hour after oral administration at 5 mg/kg dose in rats (Table 2), read-out: Drugblood.
[2] abbreviates: prodrug level in the liver 1 hour after oral administration at 5 mg/kg dose in rats (Table 2), read-out: Drugliver.
Setting [3] is: drug level in the blood 1 hour after oral administration at 5 mg/kg dose in rats (Table 1), read-out: Drugblood.
Where [4] appears, read: drug level in the liver 1 hour after oral administration at 5 mg/kg dose in rats (Table 1), read-out: Drugliver.

On to `CCCCCCCOP1(=O)OC[C@H]2O[C@@H](n3cc(F)c(=O)[nH]c3=O)C[C@@H]2O1` (stereo partly drawn) [Compound 201, 5-Fluoro-1-((4aR,6R,7aS)-2-(heptyloxy)-2-oxidotetrahydro-4H-furo[3,2-d][1,3,2]dioxaphosphinin-6-yl)pyrimidine-2,4(1H,3H)-dione], for which the concentration at 1 h reads like this: under setting [1], 109 ng/mL; under setting [2], 1040 ng/g.

Consider `O=c1[nH]c(=O)n([C@H]2C[C@@H]3OP(=O)(OCCCc4ccccc4)OC[C@H]3O2)cc1F` (stereo partly drawn) [Compound 220, 5-Fluoro-1-((4aR,6R,7aS)-2-(3-phenylpropyloxy)-2-oxidotetrahydro-4H-furo[3,2-d][1,3,2]dioxaphosphinin-6-yl)pyrimidine-2,4(1H,3H)-dione], for which the concentration at 1 h reads like this: under setting [1], 122 ng/mL; under setting [2], 944 ng/g.

Take `COc1ccc(C2O[C@@H]3[C@H](O2)[C@@H](C)O[C@H]3n2cc(F)c(=O)[nH]c2=O)cc1` (stereo partly drawn) [Compound 118, 5-Fluoro-1-((3aR,4R,6R,6aR)-2-(4-methoxyphenyl)-6-methyltetrahydrofuro[3,4-d][1,3]dioxol-4-yl)pyrimidine-2,4(1H,3H)-dione]: the concentration at 1 h runs as follows: under setting [3], 3680 ng/mL; under setting [4], 1220 ng/g.

Regarding `C[C@H](NP(=O)(OC[C@H]1O[C@@H](n2cc(F)c(=O)[nH]c2=O)C[C@@H]1O)Oc1cccc2ccccc12)C(=O)OCc1ccccc1` (stereo partly shown) [NUC-3373, reference compound], the concentration at 1 h reads like this: under setting [1], under 1 ng/mL; under setting [2], under 6 ng/g.

Take `O=c1[nH]c(=O)n([C@H]2C[C@@H]3OP(=O)(OCc4ccc(F)cc4C4OCCO4)OC[C@H]3O2)cc1F` (stereo partly drawn) [Compound 219, 1-((4aR,6R,7aS)-2-((2-(1,3-Dioxolan-2-yl)-4-fluorobenzyl)oxy)-2-oxidotetrahydro-4H-furo[3,2-d][1,3,2]dioxaphosphinin-6-yl)-5-fluoropyrimidine-2,4(1H,3H)-dione]: the concentration at 1 h is, setting by setting: under setting [1], 20 ng/mL; under setting [2], 49.9 ng/g.

For `O=c1[nH]c(=O)n([C@H]2C[C@@H]3OP(=O)(OCCCC4CCCC4)OC[C@H]3O2)cc1F` (stereo partly drawn) [Compound 207, 5-Fluoro-1-((4aR,6R,7aS)-2-(3-cyclopentylpropyloxy)-2-oxidotetrahydro-4H-furo[3,2-d][1,3,2]dioxaphosphinin-6-yl)pyrimidine-2,4(1H,3H)-dione], the concentration at 1 h stood at 29.4 ng/mL under setting [1] and 429 ng/g under setting [2].

Regarding `CCc1ccc(COP2(=O)OC[C@H]3O[C@@H](n4cc(F)c(=O)[nH]c4=O)C[C@@H]3O2)cc1` (stereo partly drawn) [Compound 147, 1-((4aR,6R,7aS)-2-(4-Ethylbenzyloxy)-2-oxidotetrahydro-4H-furo[3,2-d][1,3,2]dioxaphosphinin-6-yl)-5-fluoropyrimidine-2,4(1H,3H)-dione], the concentration at 1 h was under 1 ng/mL under setting [3] and under 6 ng/g under setting [4].

With `C[C@H]1O[C@@H](n2cc(F)c(=O)[nH]c2=O)[C@@H]2OC(c3ccc(O)cc3)O[C@@H]21` (stereo partly drawn) [Compound 116, 5-Fluoro-1-((3aR,4R,6R,6aR)-2-(4-hydroxyphenyl)-6-methyltetrahydrofuro[3,4-d][1,3]dioxol-4-yl)pyrimidine-2,4(1H,3H)-dione], the concentration at 1 h turned out to be 1350 ng/mL under setting [3] and 978 ng/g under setting [4].

In the case of `CCCCCOC(=O)Nc1nc(=O)n([C@@H]2O[C@H](C)[C@@H](O)[C@H]2O)cc1F` [Capecitabine, reference compound], the concentration at 1 h runs as follows: under setting [1], 88.4 ng/mL; under setting [2], 44.7 ng/g.

As for `CCCCCCCCOP1(=O)OC[C@H]2O[C@@H](n3cc(F)c(=O)[nH]c3=O)C[C@@H]2O1` (stereo partly drawn) [Compound 202, 5-Fluoro-1-((4aR,6R,7aS)-2-(octyloxy)-2-oxidotetrahydro-4H-furo[3,2-d][1,3,2]dioxaphosphinin-6-yl)pyrimidine-2,4(1H,3H)-dione], the concentration at 1 h is, setting by setting: under setting [1], 158 ng/mL; under setting [2], 2560 ng/g.

With `O=c1[nH]c(=O)n([C@H]2C[C@@H]3OP(=O)(OCc4ccc(Cl)cc4)OC[C@H]3O2)cc1F` (single isomer, unassigned) [Compound 127], the concentration at 1 h is 7.81 ng/mL under setting [3] and under 6 ng/g under setting [4].

On to `O=c1[nH]c(=O)n([C@H]2C[C@@H]3OP(=O)(OCc4ccccc4F)OC[C@H]3O2)cc1F` (stereo partly drawn) [Compound 139, 1-((4aR,6R,7aS)-2-(2-Fluorobenzyloxy)-2-oxidotetrahydro-4H-furo[3,2-d][1,3,2]dioxaphosphinin-6-yl)-5-fluoropyrimidine-2,4(1H,3H)-dione], for which the concentration at 1 h was 11.3 ng/mL under setting [3] and under 6 ng/g under setting [4].

Turning to `CCCCCCCCCOP1(=O)OC[C@H]2O[C@@H](n3cc(F)c(=O)[nH]c3=O)C[C@@H]2O1` (stereo partly drawn) [Compound 132, 5-Fluoro-1-((4aR,6R,7aS)-2-(nonyloxy)-2-oxidotetrahydro-4H-furo[3,2-d][1,3,2]dioxaphosphinin-6-yl)pyrimidine-2,4(1H,3H)-dione], the concentration at 1 h runs as follows: under setting [3], 59.9 ng/mL; under setting [4], 1370 ng/g.

As to `O=c1[nH]c(=O)n([C@H]2C[C@@H]3OP(=O)(OCc4ccc(C(F)(F)F)cc4)OC[C@H]3O2)cc1F` (stereo partly drawn) [Compound 156, 5-Fluoro-1-((4aR,6R,7aS)-2-oxido-2-((4-(trifluoromethyl)benzyl)oxy)tetrahydro-4H-furo[3,2-d][1,3,2]dioxaphosphinin-6-yl)pyrimidine-2,4(1H,3H)-dione], the concentration at 1 h by setting is: under setting [3], 3.66 ng/mL; under setting [4], under 6 ng/g.

As for `O=c1[nH]c(=O)n([C@H]2C[C@@H]3OP(=O)(Oc4ccccc4)OC[C@H]3O2)cc1F` (stereo partly drawn) [Compound 122, 5-Fluoro-1-((4aR,6R,7aS)-2-oxido-2-phenoxytetrahydro-4H-furo[3,2-d][1,3,2]dioxaphosphinin-6-yl)pyrimidine-2,4(1H,3H)-dione], the concentration at 1 h came out at 301 ng/mL under setting [3] and 1980 ng/g under setting [4].

For the compound `O=c1[nH]c(=O)n([C@H]2C[C@@H]3OP(=O)(OCC4(c5ccccc5)CC4)OC[C@H]3O2)cc1F` (stereo partly drawn) [Compound 217, 5-Fluoro-1-((4aR,6R,7aS)-2-oxido-2-((1-phenylcyclopropyl)methoxy)tetrahydro-4H-furo[3,2-d][1,3,2]dioxaphosphinin-6-yl)pyrimidine-2,4(1H,3H)-dione], the concentration at 1 h is, setting by setting: under setting [1], 21.7 ng/mL; under setting [2], 255 ng/g.

Regarding `CCOCOC1[C@@H](O)[C@H](n2cc(F)c(=O)n(COCC)c2=O)O[C@@H]1C` (stereo in doubt) [Compound 109, 1-((2R,3R,4R,5R)-4-(Ethoxymethoxy)-3-hydroxy-5-methyltetrahydrofuran-2-yl)-3-(ethoxymethyl)-5-fluoropyrimidine-2,4(1H,3H)-dione], the concentration at 1 h came out at 83.9 ng/mL under setting [3] and 373 ng/g under setting [4].
